Assay results published in publication PMC7377376, “Drug targeting CYP2E1 for the treatment of early-stage alcoholic steatohepatitis” (PLoS ONE, 2020).
Where two headings read alike, the source gives them in different places.

Tests used:
CYP2E1 [1] = settings: cited from earlier work
CYP2E1 [2] = settings: cited from earlier work; remark: listed apart in the source
[3] = target: T1, human cytochrome P450 2E1 (Homo sapiens, UniProt P05181); test: Steady-state p-nitrophenol oxidation, CYP2E1 inhibition in SUPERSOMES; assay type: biochemical
T1 construct: purchased BD Biosciences
T1 sequence (P05181 whole entry): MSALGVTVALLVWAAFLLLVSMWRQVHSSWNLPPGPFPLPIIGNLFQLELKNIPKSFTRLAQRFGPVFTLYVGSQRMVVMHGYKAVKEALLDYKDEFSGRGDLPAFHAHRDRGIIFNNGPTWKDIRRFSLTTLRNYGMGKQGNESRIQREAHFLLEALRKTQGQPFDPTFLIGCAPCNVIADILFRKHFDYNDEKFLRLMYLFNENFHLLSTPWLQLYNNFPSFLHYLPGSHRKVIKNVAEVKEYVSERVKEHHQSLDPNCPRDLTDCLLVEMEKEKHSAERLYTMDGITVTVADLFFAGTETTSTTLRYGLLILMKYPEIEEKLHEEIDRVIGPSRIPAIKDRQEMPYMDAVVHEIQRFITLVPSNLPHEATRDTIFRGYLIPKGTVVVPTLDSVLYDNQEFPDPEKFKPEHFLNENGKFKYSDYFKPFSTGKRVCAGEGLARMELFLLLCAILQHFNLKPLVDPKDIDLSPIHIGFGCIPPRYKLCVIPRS
Experimental: Initial velocities of the oxidation of p-nitrophenol (p-NP) to p-nitrocatechol by human cytochrome P450 2E1 were determined by measuring the absorption at 535 nm or 546 nm to determine product formation as described before.
Alternatively, 100 mM HEPES pH 7.6 was additionally used for the enzyme kinetic measurements. A final concentration of either 50 nM enzyme in form of SUPERSOMES™ from BD Biosciences or microsomes in case of cell culture experiments was added. Reaction was initiated by adding 500 μM (enzyme kinetic measurements) or 0.1 mM (cell culture experiments) NADPH after preincubation at 37° C and stopped by adding 20% trichloroacetic acid (TCA) after 30 minutes to ensure linearity of product formation. The protein concentration for the microsomal fraction was determined by Bradford assay to calculate the results expressed as units of specific activity defined as the amount of enzyme that consumes 1 μmol/L of NADPH per hour per microgram of protein. Inhibitor stock solutions were prepared in 0.1% DMSO and diluted to a final DMSO concentration of 0.003% in the reaction mixture at most to avoid enzyme inhibition by this solvent. Inhibitory constants (Ki) were calculated by non-linear fitting of initial velocities. Maximum inhibition could not be achieved since final inhibitor concentrations were limited by DMSO.
Supplementary file pone.0235990.s002.tif: S2 Fig CYP2E1 inhibition by data base inhibitors. To ascertain whether an imidazole containing compound is already commercially available and better suited for development as a drug can-didate, we performed a large virtual library screening of the ZINK database. We found 14,738 hits. The 5,261 commercially available compounds could be classified as 4,710 synthetic and 551 natural molecules. After docking and final scoring process, the seven best synthetic and the three best natural candidates were purchased and tested in vitro for their potential to inhibit CYP2E1 activity. Different concentrations of these compounds dissolved in DMSO were added to 110 μM p-Nitrophenol in 100 mM HEPES buffer pH 7.6 and SUPERSOMES™ with 50 nM human CYP 2E1 to calculate relative activity values. […] 20 μM corresponds to a DMSO volume of 0.02% (v/v). (TIF) Click here for additional data file.

cholesterol synthesis = tested on: cholesterol synthesis; set-up: method as in printed; settings: high concentrations (> or =1.0 mmol/L); ref not given; cited from earlier work
ethanol-fed Wistar rats [4] = test: Oxidative stress parameters in liver of ethanol-fed rats (Lieber-DeCarli diet); assay type: in vivo; settings: rat liver
Source text: (§1) A total of 68 female Wistar rats (Institute of Pharmacology and Biochemistry Breeding House, Minsk, Belarus) aged 80–90 days and weighting 180–200 g at the beginning of the experiments were used in the study. Each rat group (n = 6–8) was housed in a separate cage and had free access to the liquid diet during the full study period. Prior to the study, the animals were habituated for seven days to the cage conditions and experimental handling. The rats were maintained in a controlled experimental environment (20–25°C, 40–50% humidity, 12 h light per day, room with a 12-h light/dark cycle).
(§2) Rats were divided into ten groups characterized by the diet and the test compounds (S1 Table). Group 1 is the first control group in which a normal solid standard diet was fed for 12 weeks. All other groups received the liquid Lieber-DeCarli (LDC) diet (S2 Table), which combines food and drink in a liquid manner. It was prepared by ssniff Spezialdiäten GmbH, Soest. The addition of maltodextrin to this diet should compensate the pure caloric effect of ethanol, whereby 1.77 g maltodextrin replaces 1 g ethanol. The calorie value of both the control and ethanol diets was the same: 35% calories from fat, 11% from carbohydrates, 18% from protein and 36% from ethanol.
(§3) In the first two weeks rats of all groups–with the exception of group 1 –were fed with LDC diet plus maltodextrin in an appropriate amount to adapt the animals to the liquid diet. Group 2 is the second control group in which the isocaloric diet was administered for further 10 weeks until the end of the experiment. […] The test compounds I-ol, I-an and UDCA were dissolved in a 0.8% aqueous HPMC gel to obtain the appropriate concentrations: (1) I-ol with 0.4, 4 and 40 mg/kg b. w. (2) I-an with 0.4, 4 and 40 mg/kg b. w. (3) UDCA with 40 mg/kg b. w. Rats of group 2 and 3 received only HPMC as a placebo. The LDC diets were fed ad libitum and their intake per cage was controlled daily. The corresponding bottles were stored in the cages from 08:00 a. m. until 06:00 p. m. and replaced by drinking water bottles overnight until 08:00 a. m. in the next morning. Every day at the same time, the test compounds or only HPMC were administered intragastrically by oral gavage with an administration volume of 2 ml/kg b. w. After ten weeks of treatment, the rats were anesthetized with an intraperitoneal injection of a 5% pentobarbital solution and then killed by aorta scarification. Their livers were dissected and liver pieces frozen and stored in liquid nitrogen. A part of the liver was fixed for histological investigations. Blood was collected before sacrifice, centrifuged for serum preparation and finally stored in liquid nitrogen.
The generation of reactive oxygen species (ROS) in rat liver was evaluated by NADPH-induced chemiluminescence with amplification by both luminol for the detection of superoxide (SRA) radical anion and lucigenin detecting hydrogen peroxide as described by Müller-Peddinhaus. In short, liver pieces were homogenized in 0.1 M sodium phosphate buffer pH 7.4. The homogenates were centrifuged at 9,000 x g at 0°C and aliquots were used for the measurement. Reduced glutathione (GSH) was determined by a modified Ellman`s method: 0.2 ml of the liver homogenates’ supernatant were added to 1.6 ml of an EDTA-/sodium […] solution. The absorbance was read at […] against blanks. GSH solution—prepared immediately before use—served as a standard. End products of the lipid peroxidation reaction are equivalent to TBARS (thiobarbituric acid-reacting substances) and their concentration was measured according to Buege et al.. The enzymatic activity of cytosolic glutathione peroxidase (GPx) and microsomal glutathione reductase (GR) were determined as described by Buko at al.. Catalase activity was evaluated by spectrophotometric measurement using hydrogen peroxide as a substrate according to Beers et al.. […]

ethanol-fed Wistar rats [5] = test: Liver and serum lipid parameters of ethanol-fed rats; assay type: in vivo, rat
Source text: as §1, §2, §3
(§4) The serum marker enzyme activities, alanine aminotransferase (ALT), aspartate aminotransferase (AST), alkaline phosphatase (AP) and gamma-glutamyltransferase (γ-GT) as well as triglycerides and bilirubin were measured according to manufacturer’s instructions using standard commercial kits from Lachema (PLIVA-Lachema Diagnostika, Czech Republic). Serum concentrations of leptin, adiponectin and TNF-alpha were analyzed using commercial ELISA test kits: BioCat GmbH (Heidelberg, German) for adiponectin and TNF-alpha, BioVendor Laboratory Medicine Inc. (Brno, Czech Republic) for leptin. Insulin serum concentration was determined by radioimmunoassay using the commercially available kit RIO-insulin-PG-J125 (IBOCH, Minsk, Belarus). Glucose serum concentration was determined by the Accu-Check Active blood glucose testing system from Roche-Diagnostics GmbH (Mannheim, Germany).
Lipids were extracted with a chloroform: methanol mixture (2:1 v/v). Neutral lipids and phospholipids were separated into classes by thin-layer chromatography (TLC). Lipid fractions (triglycerides, cholesterol and its fractions) were measured in extracts from scraped spots by routine methods using the appropriate commercial kits. […]

ethanol-fed Wistar rats [6] = test: Serum liver enzyme activities of ethanol-fed rats; assay type: in vivo, rat
Source text: as §1, §2, §3, §4

ethanol-fed Wistar rats [7] = test: Liver histopathology of ethanol-fed rats; assay type: in vivo, rat; settings: I-ol, I-an in their higher concentrations; UDCA 40 mg/kg b.w.; H.E. staining
Experimental: as §3
Liver samples were selected randomly, fixed in Bouin`s solution and embedded in paraffin wax. Histological sections were prepared and stained with haematoxylin and eosin. Other liver samples were fixed in a solution containing formaldehyde, paraformaldehyde and glutaraldehyde with a subsequent post-fixation in 1% osmium containing phosphate buffer pH 7.4 for further analysis. Liver tissue was embedded in a mixture of butyl-methyl-metacrylates. Semifine sections of 0.5–1.0 μm were stained with Asur II, methylen blue and basic fuxine.

[8] = cited from earlier work
[9] = literature survey, ref not given
[10] = average over 0.4/4/40 mg/kg b.w. (UDCA 40 mg/kg), oral, 10 weeks
[11] = average over doses (UDCA 40 mg/kg)
[12] = liver, average over doses (UDCA 40 mg/kg)
[13] = serum, average over doses (UDCA 40 mg/kg)

Compound: O=C(O)CCCCCCCCCCCn1ccnc1 [12 (imidazolyl) dodecanoic acids, 12-(imidazolyl)-dodecanoic acid]
- affinity to CYP2E1 compared to other ω imidazolyl alkanoic acids (in words) (CYP2E1 [1]; ref Porubsky, Battaile et al. 2010): highest affinity

Compound: C[N+](C)(C)CC(=O)O [Betaine]
- effect on CYP2E1 activity (in words) (CYP2E1 [2]; [9]): Betaine reduces CYP2E1 activity only to a minor extend, while attenuating ASH. People with high cholesterol should use betaine anhydrous cautiously.

Compound: C[S+](C)[O-] [DMSO]
- IC50 ([3]; solvent inhibition of CYP2E1): 0.065 % (v/v)

Compound: C=CCSSCC=C [Diallyl disulfide (DADS), Diallyl disulfide]
- cholesterol synthesis (in words) (cholesterol synthesis): abolished

Compound: OCCCCCCCCCCn1ccnc1 [I-decanol, 10-imidazolyl-1-decanol]
- inhibitory effect on CYP2E1 (in words) ([3]; human CYP2E1 SUPERSOMES): almost identical

Compound: OCCCCCCCn1ccnc1 [I-heptanol, 7-imidazolyl-1-heptanol]
- inhibitory effect on CYP2E1 (in words) ([3]; human CYP2E1 SUPERSOMES): dramatic decrease in inhibitory performance

Compound: OCCCCCCCCCn1ccnc1 [I-nonanol, 9-imidazolyl-1-nonanol]
- inhibitory effect on CYP2E1 (in words) ([3]; human CYP2E1 SUPERSOMES): almost identical

Compound: C[N+](C)(C)CCOP(=O)([O-])OCCCCCCCCCCCCn1ccnc1 [I-phosphocholine, 12-Imidazolyl-dodecan-1-yl-phosphocholine]
- Ki ([3]; human CYP2E1 SUPERSOMES, p-nitrophenol oxidation, competitive model with offset): 22 µM

Compound: C[S+](CC[C@H](N)C(=O)[O-])C[C@H]1O[C@@H](n2cnc3c(N)ncnc32)[C@H](O)[C@@H]1O (stereo partly drawn) [S-adenosyl-L-methionine (SAM), S-adenosyl-L-methionine]
- effect on CYP2E1 activity (in words) (CYP2E1 [2]; [9]): CYP2E1 activity (SAM is a non-competitive inhibitor), reactive oxygen species, anti-fibrogenic action, clinical trial

Compound: C[S+]([O-])CCCCN=C=S (stereo not shown) [Sulforaphane]
- effect on CYP2E1 activity (in words) (CYP2E1 [2]; [9]): Sulforaphane does not inhibit CYP2E1 in the knockin mouse modell.

Compound: C[C@H](CCC(=O)O)[C@H]1CC[C@H]2[C@@H]3[C@@H](O)C[C@@H]4C[C@H](O)CC[C@]4(C)[C@H]3CC[C@]12C [UDCA, ursodeoxycholic acid, reference compound]
- reduction of ethanol effect on hydrogen peroxide (ethanol-fed Wistar rats [4]; I-ol, I-an 0.4/4/40 mg/kg b.w., UDCA 40 mg/kg, oral, 10 weeks): 46%
- GPx activity decrease compared to disease group (ethanol-fed Wistar rats [4]; UDCA 40 mg/kg b.w.): 21%
- reduction of ethanol effect on TBARS (ethanol-fed Wistar rats [4]; average over 0.4/4/40 mg/kg b.w. (UDCA 40 mg/kg)): no statistic significant reduction
- reduction of ethanol effect on superoxide radical anion (SRA) (ethanol-fed Wistar rats [4]; average over 0.4/4/40 mg/kg b.w. (UDCA 40 mg/kg), daily oral gavage, 10 weeks): no statistic significant reduction
- hydrogen peroxide decrease compared to disease group (ethanol-fed Wistar rats [4]; [10]): 32%
- reduction of ethanol effect on reduced glutathione (GSH) (ethanol-fed Wistar rats [4]; [10]): no statistically significant changes
- reduction of ethanol effect on glutathione reductase (GR) activity (ethanol-fed Wistar rats [4]; [11]): no statistically significant result
- GPx activity below the reference value in healthy animals (ethanol-fed Wistar rats [4]; highest concentration (UDCA 40 mg/kg b.w.)): 28%
- liver cholesterol decrease compared to disease group (ethanol-fed Wistar rats [5]; liver, UDCA 40 mg/kg): 11%
- reduction of ethanol effect on hepatic cholesterol (ethanol-fed Wistar rats [5]; liver, UDCA 40 mg/kg): 78%
- reduction of ethanol effect on hepatic triglycerides (ethanol-fed Wistar rats [5]; liver, average over 0.4/4/40 mg/kg b.w. (UDCA 40 mg/kg), oral, 10 weeks): 55%
- liver phospholipids decrease compared to disease group (ethanol-fed Wistar rats [5]; [12]): 20%
- liver triglycerides decrease compared to disease group (ethanol-fed Wistar rats [5]; [12]): 31%
- reduction of ethanol effect on hepatic phospholipids (ethanol-fed Wistar rats [5]; [12]): completely eliminated
- reduction of ethanol effect on serum LDL cholesterol (ethanol-fed Wistar rats [5]; serum, UDCA 40 mg/kg): no significant effect
- reduction of ethanol effect on serum VLDL (ethanol-fed Wistar rats [5]; serum, UDCA 40 mg/kg): no statistically significant reduction
- reduction of ethanol effect on serum triglycerides (ethanol-fed Wistar rats [5]; [13]): 79%
- serum triglycerides decrease compared to disease group (ethanol-fed Wistar rats [5]; [13]): 39%
- reduction of ethanol effect on γ-GT activity (ethanol-fed Wistar rats [6]; UDCA 40 mg/kg): 61%
- ALT activity decrease compared to disease group (ethanol-fed Wistar rats [6]; [11]): 33%
- AP activity decrease compared to disease group (ethanol-fed Wistar rats [6]; [11]): 20%
- AST activity decrease compared to disease group (ethanol-fed Wistar rats [6]; [11]): 19%
- reduction of ethanol effect on AST activity (ethanol-fed Wistar rats [6]; [11]): 83%
- γ-GT activity decrease compared to disease group (ethanol-fed Wistar rats [6]; [11]): 33%
- reduction of ethanol effect on alkaline phosphatase (AP) activity (ethanol-fed Wistar rats [6]; on average (UDCA 40 mg/kg)): 66%
- liver morphology (histopathology, in words) (ethanol-fed Wistar rats [7]): reduce the histopathological effects of ethanol in a comparable way
- long-term high-dose safety finding ([8]; 28–30 mg/kg/day, patients with ulcerative colitis and PSC): increased risk of colorectal neoplasia
- mortality at maximum follow-up versus no intervention group ([8]; network meta-analysis, alcoholic liver disease): higher

Compound: O=C(O)CCCCCn1ccnc1 [ω-imidazolylhexanoic acid]
- spin shift (CYP2E1 [1]): missing spin shift

Compound: Silymarin
- effect on CYP2E1 activity (in words) (CYP2E1 [2]): Has no influence on CYP2E1 activity. Clinical trails with patients having alcoholic liver cirrhosis showed controversial results.
